Results taken from ChEMBL document CHEMBL1132396, “Potent, orally bioavailable somatostatin agonists: good absorption achieved by urea backbone cyclization” (Bioorg Med Chem Lett, 1999).
Several values for one entry are separate records, joined by “and”; a condition that tells them apart may be missing. Identical values can stand only once.

What was measured:
[1] = molecular target: Somatostatin receptor type 2 (Mus musculus, UniProt P30875); experiment: In vitro binding affinity was evaluated against mouse Somatostatin receptor type 2 (mSSTR-2)
[2] = molecular target: T1, Somatostatin receptor type 2 (Homo sapiens, UniProt P30874); experiment: In vitro binding affinity was evaluated against human Somatostatin receptor type 2 (hSSTR-2)
[3] = molecular target: T1, Somatostatin receptor type 2; experiment: In vitro binding affinity was evaluated against human Somatostatin receptor type 2 in experiment 1
[4] = molecular target: T1, Somatostatin receptor type 2; experiment: In vitro binding affinity was evaluated against human Somatostatin receptor type 2 in experiment 2
[5] = Bioavailability; assay type: ADME, organism-based, Canis lupus familiaris; conditions: beagle, dog, in vivo
[6] = molecular target: Somatostatin receptor type 5 (Homo sapiens, UniProt P35346); experiment: In vitro binding affinity was evaluated against human Somatostatin receptor type 5 (hSSTR-5)
[7] = Cmax value after 2 mpk peroral administration to beagles; assay type: ADME, organism-based, Canis lupus familiaris; parameters: dose 2 mpk, route oral; conditions: Beagle, dog, in vivo, po, 2 mg/kg
[8] = Bioavailability after 2 mpk peroral administration to beagles; assay type: ADME, organism-based, Canis lupus familiaris; conditions: Beagle, dog, in vivo, po, 2 mg/kg
[9] = molecular target: Somatostatin receptor type 3 (Homo sapiens, UniProt P32745); experiment: In vitro binding affinity was evaluated against human Somatostatin receptor type 3 (hSSTR-3)
[10] = molecular target: Somatostatin receptor type 1 (Homo sapiens, UniProt P30872); experiment: In vitro binding affinity was evaluated against human Somatostatin receptor type 1 (hSSTR-1)
[11] = molecular target: Somatostatin receptor type 4 (Homo sapiens, UniProt P31391); experiment: In vitro binding affinity was evaluated against human Somatostatin receptor type 4 (hSSTR-4)
[12] = Area under curve after 2 mpk peroral administration to beagles; assay type: ADME, Canis lupus familiaris; conditions: Beagle, dog, in vivo, po, 2 mg/kg
[13] = Area under curve after 1 mpk peroral administration to beagles; assay type: ADME, Canis lupus familiaris; conditions: Beagle, dog, in vivo, po, 1 mg/kg
[14] = Cmax value after 1 mpk peroral administration to beagles; assay type: ADME, organism-based, Canis lupus familiaris; parameters: dose 1 mpk, route oral; conditions: Beagle, dog, in vivo, po, 1 mg/kg
[15] = Bioavailability after 1 mpk peroral administration to beagles; assay type: ADME, organism-based, Canis lupus familiaris; conditions: Beagle, dog, in vivo, po, 1 mg/kg
Rattus norvegicus = species on record: Rattus norvegicus; experiment: Compound tested for the inhibition of growth hormone release was determined using primary cultures of rat anterior pituitary cells; assay type: functional, cell-based; conditions: Pituitary gland cell

T1 sequence (P30874 whole entry): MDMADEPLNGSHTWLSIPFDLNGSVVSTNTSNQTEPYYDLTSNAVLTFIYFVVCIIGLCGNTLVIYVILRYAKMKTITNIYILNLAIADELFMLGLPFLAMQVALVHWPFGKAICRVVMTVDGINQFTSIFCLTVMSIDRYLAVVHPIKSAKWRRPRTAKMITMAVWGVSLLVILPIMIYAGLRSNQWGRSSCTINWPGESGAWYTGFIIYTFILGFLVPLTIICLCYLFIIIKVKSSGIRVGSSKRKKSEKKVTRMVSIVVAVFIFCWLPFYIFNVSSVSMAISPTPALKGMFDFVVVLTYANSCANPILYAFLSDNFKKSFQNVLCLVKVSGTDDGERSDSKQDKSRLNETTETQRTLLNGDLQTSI
Somatostatin receptor type 2 (Mus musculus, UniProt P30875), sequence (P30875 whole entry): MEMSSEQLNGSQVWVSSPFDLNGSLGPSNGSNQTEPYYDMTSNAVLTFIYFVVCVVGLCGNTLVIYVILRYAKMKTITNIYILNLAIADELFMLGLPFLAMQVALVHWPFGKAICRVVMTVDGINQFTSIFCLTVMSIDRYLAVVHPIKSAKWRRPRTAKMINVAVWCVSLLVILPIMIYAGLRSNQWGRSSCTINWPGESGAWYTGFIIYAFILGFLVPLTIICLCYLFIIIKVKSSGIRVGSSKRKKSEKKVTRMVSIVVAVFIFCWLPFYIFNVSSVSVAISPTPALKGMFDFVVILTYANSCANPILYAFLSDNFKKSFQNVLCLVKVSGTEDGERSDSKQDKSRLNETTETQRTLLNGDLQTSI
Somatostatin receptor type 3, sequence (P32745 whole entry): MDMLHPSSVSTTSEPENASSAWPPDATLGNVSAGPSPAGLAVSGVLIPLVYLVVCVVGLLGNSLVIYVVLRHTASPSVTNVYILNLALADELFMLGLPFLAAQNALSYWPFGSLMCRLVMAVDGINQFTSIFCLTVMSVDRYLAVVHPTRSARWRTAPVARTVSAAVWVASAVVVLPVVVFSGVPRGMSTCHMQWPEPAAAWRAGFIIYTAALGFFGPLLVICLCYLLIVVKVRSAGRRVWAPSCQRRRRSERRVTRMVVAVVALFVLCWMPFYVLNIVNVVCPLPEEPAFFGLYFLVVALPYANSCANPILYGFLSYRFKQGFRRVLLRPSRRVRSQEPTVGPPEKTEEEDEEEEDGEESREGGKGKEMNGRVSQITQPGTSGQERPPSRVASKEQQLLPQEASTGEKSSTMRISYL
Somatostatin receptor type 1, sequence (P30872 whole entry): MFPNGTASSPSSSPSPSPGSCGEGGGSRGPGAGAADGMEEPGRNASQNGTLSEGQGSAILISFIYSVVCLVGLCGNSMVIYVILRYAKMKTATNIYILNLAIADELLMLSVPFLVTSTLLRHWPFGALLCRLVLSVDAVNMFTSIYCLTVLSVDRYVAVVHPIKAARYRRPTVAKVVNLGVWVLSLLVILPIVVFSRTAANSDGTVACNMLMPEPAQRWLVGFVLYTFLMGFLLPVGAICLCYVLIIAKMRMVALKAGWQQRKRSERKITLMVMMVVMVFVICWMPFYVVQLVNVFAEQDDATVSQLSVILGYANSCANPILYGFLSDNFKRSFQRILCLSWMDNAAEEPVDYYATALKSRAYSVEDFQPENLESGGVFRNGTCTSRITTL
Somatostatin receptor type 4, sequence (P31391 whole entry): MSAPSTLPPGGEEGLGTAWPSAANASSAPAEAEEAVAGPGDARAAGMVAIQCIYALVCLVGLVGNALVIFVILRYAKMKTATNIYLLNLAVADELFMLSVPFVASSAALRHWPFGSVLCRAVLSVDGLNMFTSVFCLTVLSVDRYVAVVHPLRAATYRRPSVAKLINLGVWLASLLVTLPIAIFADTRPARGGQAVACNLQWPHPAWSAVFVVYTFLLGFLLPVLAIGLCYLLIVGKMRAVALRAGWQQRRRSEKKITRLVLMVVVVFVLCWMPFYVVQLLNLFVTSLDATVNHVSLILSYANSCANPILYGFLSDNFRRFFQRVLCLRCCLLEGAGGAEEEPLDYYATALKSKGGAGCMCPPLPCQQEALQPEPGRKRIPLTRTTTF

Q: Which Ki [1] does the source give for `CN(C(=O)N1CCC2(CCc3ccccc32)CC1)[C@H](Cc1c[nH]c2ccccc12)C(=O)NCCCCCN` here?
A: > 10 nM

Q: Which Ki [1] does the source give for `COC(=O)[C@@H](CCCCN)NC(=O)[C@@H](Cc1c[nH]c2ccccc12)OC(=O)N1CCC2(CCc3ccccc32)CC1` here?
A: 10 nM

Q: Which Ki [1] does the source give for `NCCCCCNC(=O)[C@@H](Cc1c[nH]c2ccccc12)NC(=O)N1CCC2(CCc3ccccc32)CC1` here?
A: 10 nM

Q: For `C[C@@H](c1c[nH]c2ccccc12)[C@H](C(=O)N[C@H](CCCCN)C(=O)OC(C)(C)C)N1CCN(c2cccc(-c3ccccc3)c2)C1=O`, which Ki [2] is on record?
A: 80 nM

Q: With `C[C@@H](c1c[nH]c2ccccc12)[C@H](C(=O)N[C@H](CCCCN)C(=O)OC(C)(C)C)N1CCN(C2CCC(c3ccccc3)CC2)C1=O` (stereo partly drawn) as the compound, how does the Ki [3] read?
A: 40 nM

Q: What about the Ki [4] of the same compound?
A: 6.3 nM

Q: Which results are given for `C[C@@H](c1c[nH]c2ccccc12)[C@H](C(=O)NC[C@H]1OC[C@H](N)CO1)N1CCN(Cc2ccc(Cl)c(Cl)c2)C1=O`?
A: Ki [2]: 7.3 nM; bioavailability [5]: 21%

Q: For `CC(CCN1CCN([C@@H](C(=O)N[C@H](CCCCN)C(=O)OC(C)(C)C)[C@@H](C)c2c[nH]c3ccccc23)C1=O)c1ccccc1` (stereo partly drawn), which Ki [2] is on record?
A: 5.9 nM

Q: For `COC(=O)[C@@H](CCCCN)NC(=O)[C@@H](Cc1c[nH]c2ccccc12)NC(=O)N1CCC2(CCc3ccccc32)CC1`, which Ki [1] is on record?
A: 2 nM

Q: Which Ki [6] does the source give for `C[C@@H](c1c[nH]c2ccccc12)[C@H](C(=O)N[C@H](CCCCN)C(=O)OC(C)(C)C)N1CCN(CCCc2ccccc2)C1=O` here?
A: 284 nM

Q: And the Cmax [7]?
A: 350 ng/mL

Q: And the bioavailability [8]?
A: 5%

Q: And the Ki [9]?
A: 1290 nM

Q: What about the Ki [10] of the same compound?
A: 712 nM

Q: What about the Ki [11] of the same compound?
A: 83 nM

Q: And the Ki [2]?
A: 3.6 nM

Q: And the AUC [12]?
A: 837 ng·h/mL

Q: What does the source list for `C[C@@H](c1c[nH]c2ccccc12)[C@@H](NC(=O)N(C)CCCc1ccccc1)C(=O)N[C@H](CCCCN)C(=O)OC(C)(C)C`?
A: Ki [2]: 2.2 nM; AUC [13]: 333 ng·h/mL; Cmax [14]: 103 ng/mL

Q: With `C[C@@H](c1c[nH]c2ccccc12)[C@H](C(=O)NC[C@H]1OC[C@H](N)CO1)N1CCN(CCCc2ccccc2)C1=O` as the compound, how does the Ki [2] read?
A: 18 nM

Q: For `C[C@@H](c1c[nH]c2ccccc12)[C@H](C(=O)N[C@H](CCCCN)C(=O)OC(C)(C)C)N1CCN(CCc2ccccc2)C1=O`, which Ki [2] is on record?
A: 47 nM

Q: Which Ki [2] does the source give for `C[C@@H](c1c[nH]c2ccccc12)[C@H](C(=O)N[C@H](CCCCN)C(=O)OC(C)(C)C)N1CCN(Cc2ccccc2)C1=O` here?
A: 14 nM

Q: With `C[C@@H](c1c[nH]c2ccccc12)[C@H](C(=O)NC[C@H]1OC[C@H](N)CO1)N1CCN(CCC(c2ccccc2)c2ccccc2)C1=O` as the compound, how does the Ki [2] read?
A: 8.5 nM and 1.1 nM

Q: For `C[C@@H](c1c[nH]c2ccccc12)[C@H](C(=O)NC[C@H]1OC[C@H](N)CO1)N1CCN(CCc2cccc3ccccc23)C1=O`, which Ki [2] is on record?
A: 122 nM

Q: With `C[C@@H](c1c[nH]c2ccccc12)[C@H](C(=O)NC[C@H]1OC[C@H](N)CO1)N1CCN(CCCn2c(O)nc3ccccc32)C1=O` as the compound, how does the Ki [2] read?
A: 40 nM

Q: What does the source list for `C[C@@H](c1c[nH]c2ccccc12)[C@H](C(=O)N[C@H](CCCCN)C(=O)OC(C)(C)C)N1CCN(Cc2ccc(C(F)(F)F)cc2)C1=O`?
A: Ki [2]: 1.3 nM; bioavailability [5]: 3%

Q: With `CC(CCc1ccccc1)N1CCN([C@@H](C(=O)N[C@H](CCCCN)C(=O)OC(C)(C)C)[C@@H](C)c2c[nH]c3ccccc23)C1=O` (stereo partly drawn) as the compound, how does the Ki [2] read?
A: 12 nM

Q: For `C[C@@H](c1c[nH]c2ccccc12)[C@H](C(=O)N[C@H](CCCCN)C(=O)OC(C)(C)C)N1CCN(C2CCCN(c3ccccc3)C2)C1=O` (stereo partly drawn), which Ki [2] is on record?
A: 1.4 nM

Q: Which Ki [2] does the source give for `C[C@@H](c1c[nH]c2ccccc12)[C@H](C(=O)N(C)C[C@H]1OC[C@H](N)CO1)N1CCN(CCC(c2ccccc2)c2ccccc2)C1=O` here?
A: 4.6 nM

Q: For `C[C@@H](c1c[nH]c2ccccc12)[C@@H](NC(=O)NCCCc1ccccc1)C(=O)N[C@H](CCCCN)C(=O)OC(C)(C)C`, which bioavailability [15] is on record?
A: 1%

Q: And the Ki [2]?
A: 1 nM

Q: What about the AUC [13] of the same compound?
A: 314 ng·h/mL

Q: And the Cmax [14]?
A: 86 ng/mL

Q: With `C[C@@H](c1c[nH]c2ccccc12)[C@H](C(=O)N(C)C[C@H]1OC[C@H](N)CO1)N1CCN(CCCc2ccccc2)C1=O` as the compound, how does the Ki [2] read?
A: 11 nM

Q: Which results are given for `C[C@@H](c1c[nH]c2ccccc12)[C@H](C(=O)N(C)C[C@H]1OC[C@H](N)CO1)N1CCN(C2CCCN(c3ccccc3)C2)C1=O` (stereo partly drawn)?
A: Ki [6]: 1400 nM; IC50 (Rattus norvegicus): 70 nM; Ki [3]: 2.1 nM; Ki [4]: 14 nM; Ki [9]: > 10000 nM; bioavailability [5]: 15%
